“And” between values parts separate entries of the source, which are not always exact repeats. Identical values can stand only once.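 Test compounds were applied to cells in 96-well plates for 48 hours at 5 doses. Here, GI50 denotes the concentration required for 50% inhibition of growth. Definition used: TGI = concentration required for complete inhibition of growth.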

The experiment relates to MDA-MB-468 breast. Kind of experiment: DTP human tumour cell line panel, 48 h.
For `COc1ccc2nc(NC(=O)c3cccnc3Nc3cc(OC)c(OC)c(OC)c3)sc2c1`, the GI50 (usually the concentration at which growth is held to half of that of the control) is 17800 nM and the TGI (as a rule, the concentration giving total growth inhibition) was 62.7 µM.
In the same order, the values of `Oc1ccc(Cl)cc1CNc1nc2ccccc2[nH]1` are 5720 nM and 21.9 µM.
For `COc1ccc(Nc2cc(C)nc(N3CCN(c4ccnc5cc(Cl)ccc45)CC3)n2)cc1` the same measures were 1770 nM and 5.57 µM.
With `CO[C@H]1CC(c2ccc[nH]2)=N[C@]12O[C@@H](C)C[C@@H]1CCCCCCCc3ccc([nH]3)[C@H]12`, the GI50 is 444 nM and the TGI came out at 3.62 µM.
For `CCN(CC)CCOc1ccc(C(=O)/C=C\c2ccc(Cl)cc2Cl)cc1` the same measures were 5050 nM and 19 µM.
In the same order, the values of `O=C(Nc1ccc(I)cc1F)c1cc(Cl)ccc1O` are 361 nM and 1.73 µM.
For `COc1cc(Cl)cc(-c2nn(-c3cccc(NC(=O)Nc4ccc(Cl)c(C(F)(F)F)c4)c3)cc2-c2ccncc2)c1` the same measures were 990 nM and 5.47 µM.
For the molecule `Cn1c(=O)c(Oc2ccc(F)cc2F)cc2cnc(NCCS(C)(=O)=O)nc21`, the GI50 is more than 25000 nM and the TGI was more than 25 µM.
For `O=C1NCCS(=O)(=O)/C1=C\C=C\c1cccc(C(F)(F)F)c1` the same measures were 1560 nM and 4.53 µM.
For `Cc1cccc2c(N)c3ccccc3nc12` the same measures were 1440 nM and 4.63 µM.
For the molecule `CC(=O)Oc1ccc(C(c2ccc(OC(C)=O)cc2)c2ccccn2)cc1`, the GI50 is 458 nM and 1340 nM; the TGI is 25 µM and 45.2 µM.
For `COc1cc(/C=N/NC(=O)c2cn(C3CC3)c3c(OC)c(N4CC5CCCNC5C4)c(F)cc3c2=O)ccc1O` (centres undefined), the GI50 was 1630 nM and the TGI turned out to be 3.11 µM.
For the molecule `COc1ccc(-c2nn(-c3cccc(NC(=O)c4ccc(N5CCOCC5)c(C(F)(F)F)c4)c3)cc2-c2ccncc2)cc1Cl`, the GI50 was 6880 nM and the TGI was more than 50 µM.
For `CN(C)CCN1C(=O)c2cccc3cccc(c23)C1=O`, the GI50 was 10300 nM and the concentration for total growth inhibition (TGI) is more than 25 µM.
`O=S(=O)(NCCNc1nccc(-c2c(-c3ccc(F)cc3)nc3sccn23)n1)c1ccccc1`: the GI50 was 4340 nM and the TGI was more than 100 µM.
In the same order, the values of `COc1cc(/C=C/C(=O)c2cccnc2Nc2ccc(F)cc2)cc(OC)c1OC` are 1770 nM and 5.67 µM.
For `CCOC(=O)/C(C#N)=C/c1ccc2c(c1)CC1(C2)Cc2cc(CC)c(C(C)O)cc2C1` (centres undefined) the same measures were 12400 nM and 36.8 µM.
As for `C/C=C(\C)C(=O)N[C@H]1C(O)C[C@]2(C)C3CC[C@@]4(C)C(CC[C@@H]4C(C)N(C)C)C3CCC2C1O` (some centres undefined), the GI50 was 1700 nM and the TGI turned out to be 4.54 µM.
On to `OCCN1CCN(CC/C=C2\c3ccccc3Sc3ccc(Cl)cc32)CC1`, for which the GI50 was 1540 nM and 1820 nM; the TGI was 3.18 µM and 4.05 µM.
As to `Cn1cnc([N+](=O)[O-])c1Sc1ncn[nH]1`, the GI50 is 21000 nM and the TGI is more than 100 µM.
For `Cc1nc(Nc2nc3ccccc3o2)nc(-c2cccc([N+](=O)[O-])c2)c1C(=O)Nc1ccc(F)c(Cl)c1` the same measures were 1280 nM and 6.44 µM.
In the same order, the values of `C#Cc1nc(C2=C(C)C(OC(C)=O)/C(=N/OC(C)=O)C2)cs1` (centres undefined) are 2070 nM and 8.72 µM.
For `c1ccc(CNc2nc(Nc3ccccc3)nc3ccccc23)cc1`, the GI50 is 1090 nM and the TGI is 2.56 µM.
In the same order, the values of `C=C1c2c(Cl)ccc(O)c2C(O)=C2C(=O)[C@]3(O)C(O)=C(C(N)=O)C(=O)[C@@H](N(C)C)[C@@H]3[C@@H](O)[C@H]12` are 846 nM and 2.56 µM.
For `CCn1c2ccccc2c2cc(C(O)c3cccc4ncccc34)ccc21` (centres undefined) the same measures were 32.6 nM and 0.849 µM.
Turning to `CC(C)CCN[C@@H]1CCc2cc(O)c(N3CC(=O)NS3(=O)=O)c(F)c2C1`, the GI50 was more than 100000 nM and the total growth inhibition concentration (TGI) was more than 100 µM.
For `CCN(CC)CCSCCCNc1c2ccc(Cl)cc2nc2ccc(OC)cc12` the same measures were 1500 nM and 3.05 µM.
In the same order, the values of `CC(C)COC(=O)c1ccc2[nH]c(O)c(C=Nc3ccc(S(N)(=O)=O)cc3)c2c1` are 1570 nM and 4.36 µM.
With `CCO/C=N/C1=C(C#N)C(c2ccc(OC)cc2)c2sc3c(C)cccc3c2O1` (centres undefined), the GI50 was 276 nM and the TGI is 5.69 µM.
On to `COc1ccc(C2=CC(c3ccc(OC)c(OC)c3)c3c(c4ccccc4oc3=O)O2)cc1OC` (centres undefined), for which the GI50 is 475 nM and the TGI amounted to 8.3 µM.
In the same order, the values of `COc1ccc(OC)c(Nc2nc(-c3c(C)nc4sccn34)cs2)c1` are 1700 nM and 75.3 µM.
In the same order, the values of `CCCNc1nc2ccccc2c2c1S(=O)(=O)c1ccc(Cl)cc1C2=O` are 195 nM and 1.47 µM.

Values taken from PubChem BioAssay (NCI).
